From paper PMC9476183 (ACS Omega, 2022)
Values joined by “and” are separate entries in the source; they are usually repeats but may differ in a detail not shown here. Equal entries are not always repeated.

Assays:
[1] = biological target: T1, recombinant human CYP1A1 (Homo sapiens, UniProt P04798); test: EROD assay, CYP1A1 inhibition; assay type: biochemical
T1 sequence (P04798 1-512): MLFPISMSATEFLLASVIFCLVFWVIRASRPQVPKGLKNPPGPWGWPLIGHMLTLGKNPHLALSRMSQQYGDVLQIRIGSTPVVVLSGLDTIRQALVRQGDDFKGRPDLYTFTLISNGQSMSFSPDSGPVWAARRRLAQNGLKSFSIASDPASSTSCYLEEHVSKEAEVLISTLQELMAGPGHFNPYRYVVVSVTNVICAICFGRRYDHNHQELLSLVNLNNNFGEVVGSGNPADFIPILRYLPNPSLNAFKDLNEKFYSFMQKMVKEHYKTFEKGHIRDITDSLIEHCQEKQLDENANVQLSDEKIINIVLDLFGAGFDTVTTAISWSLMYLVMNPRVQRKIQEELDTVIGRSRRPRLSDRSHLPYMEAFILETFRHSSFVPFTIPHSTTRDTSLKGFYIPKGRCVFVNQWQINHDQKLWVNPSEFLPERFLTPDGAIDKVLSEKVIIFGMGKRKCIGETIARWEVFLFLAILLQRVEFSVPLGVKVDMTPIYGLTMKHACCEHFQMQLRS

[2] = test system: myeloid leukemia cell lines; settings: ref [64],[65]; cited from earlier work
[3] = biological target: T2, recombinant human CYP1B1 (Homo sapiens, UniProt Q16678); test: EROD assay, CYP1B1 inhibition; settings: IC50 CYP1B1 ± SD, recombinant human enzyme, EROD assay, triplicate
T2 sequence (Q16678 1-543): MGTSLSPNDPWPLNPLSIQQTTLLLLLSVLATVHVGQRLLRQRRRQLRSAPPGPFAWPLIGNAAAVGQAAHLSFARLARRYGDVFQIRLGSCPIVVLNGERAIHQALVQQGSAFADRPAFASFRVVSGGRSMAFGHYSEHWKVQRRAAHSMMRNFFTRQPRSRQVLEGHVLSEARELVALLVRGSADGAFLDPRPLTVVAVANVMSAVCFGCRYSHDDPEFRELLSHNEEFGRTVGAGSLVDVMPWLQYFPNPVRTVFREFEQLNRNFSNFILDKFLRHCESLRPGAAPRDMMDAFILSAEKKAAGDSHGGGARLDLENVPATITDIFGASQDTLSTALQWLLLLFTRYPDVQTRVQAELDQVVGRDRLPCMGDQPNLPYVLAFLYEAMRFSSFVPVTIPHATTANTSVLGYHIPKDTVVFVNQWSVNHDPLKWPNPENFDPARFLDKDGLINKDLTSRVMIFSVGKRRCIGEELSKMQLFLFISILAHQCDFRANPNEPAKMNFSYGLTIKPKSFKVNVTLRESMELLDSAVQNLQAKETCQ

[4] = biological target: T3, CYP1B1 over CYP1A1 (Homo sapiens, UniProt Q16678); test: EROD assay, CYP1B1 inhibition; settings: human
T3 sequence (Q16678 1-543): T2 sequence (Q16678 1-543)

[5] = test system: MDA-MB-231; settings: MDA-MB-231, apoptosis mechanism; ref [66]; cited from earlier work
[6] = test system: orthotopic 4T1 breast cancer models; settings: by inhibiting tumor-cell platelet aggregation, ref [63]; cited from earlier work
[7] = pH 7.4, selectivity CYP1A1/CYP1B1, ratio of IC50 values

SMILES | IC50 [1] | cell death [2] | IC50 [3] | selectivity ratio [4, 7] | selectivity ratio ([4]; pH 7.4, selectivity toward CYP1B1 over CYP1A1, text) | anticancer activity [5] | breast cancer prevention [6]
O=c1cc(-c2ccccc2)oc2c1ccc1ccccc12 [ANF, α-naphthoflavone] | 20 ± 4 nM | – | – | – | – | – | –
CN(C)CC/C=C1/c2ccccc2Sc2ccc(Cl)cc21 [chlorprothixene] | 490 ± 40 nM | induce cell death by apoptosis | 72 nM and 70 nM | 6.8 | 7 | – | –
COc1ccc(Cl)cc1C(=O)NCCc1ccc(S(=O)(=O)NC(=O)NC2CCCCC2)cc1 [glibenclamide] | > 10000 nM | – | > 10000 nM | – | – | – | –
CC1CCc2c(N3CCC(O)CC3)c(F)cc3c(=O)c(C(=O)O)cn1c23 (stereo not shown) [nadifloxacin] | 2360 ± 200 nM | – | 1460 nM | 1.61 | – | promising anticancer activity | –
CCCSc1nc(N[C@@H]2C[C@H]2c2ccc(F)c(F)c2)c2nnn([C@@H]3C[C@H](OCCO)[C@@H](O)[C@H]3O)c2n1 [ticagrelor] | 3450 ± 390 nM | – | 2810 ± 900 nM | 1.22 | – | – | breast cancer prevention activity
